Patent publication EP4471049A1 (Zealand Pharma A/S, priority 2023, dated 2024)
*1 amine or outer side, *2 acyl side, *3 side chain or, on linkers, in order; H or OH if unused. Bridges are numbered along the chain shown (N, C = ends). Primed or numbered codes have the meaning given here. [ ]: non-standard residue; d: D form. 4‑Aminomethyl‑phenylacetyl = 4-aminomethyl-phenylacetyl unit, its amine closes the lactam, O=C(Cc1ccc(CN[*:1])cc1)[*:2]; Q(pyrrolidin)″ = (2S)-2-amino-5-oxo-5-pyrrolidin-1-yl-pentanoic acid, O=C(CC[C@H](N[*:1])C(=O)[*:2])N1CCCC1; αMeAla(3-pyridyl) = C[C@](N)(Cc1cccnc1)C(=O)O; 2Nal = N[C@@H](Cc1ccc2ccccc2c1)C(=O)O; AEF = NCCOc1ccc(C[C@H](N)C(=O)O)cc1; 3Pal = N[C@@H](Cc1cccnc1)C(=O)O; αMeL = CC(C)C[C@](C)(N)C(=O)O; Iso‑Dab = not defined here; Dab = NCC[C@H](N)C(=O)O

What was measured:
[1] = system: porcine pepsin (P7125, Sigma Aldrich); experiment: SGF: sodium chloride, HCl, pH 1.2, with porcine pepsin (3.2 g/L); conditions: 37 °C, up to 4 hours
[2] = system: porcine pancreatin (P1625, Sigma Aldrich); experiment: SIF: monobasic potassium phosphate, pH 6.8, with porcine pancreatin (10 g/L); conditions: 37 °C, up to 4 hours
[3] = molecular target: T1, human IL-23R endogenously expressed on DB cells (human, UniProt Q5VWK5 24-629); experiment: cell-based or functional assay
T1 sequence (looked up): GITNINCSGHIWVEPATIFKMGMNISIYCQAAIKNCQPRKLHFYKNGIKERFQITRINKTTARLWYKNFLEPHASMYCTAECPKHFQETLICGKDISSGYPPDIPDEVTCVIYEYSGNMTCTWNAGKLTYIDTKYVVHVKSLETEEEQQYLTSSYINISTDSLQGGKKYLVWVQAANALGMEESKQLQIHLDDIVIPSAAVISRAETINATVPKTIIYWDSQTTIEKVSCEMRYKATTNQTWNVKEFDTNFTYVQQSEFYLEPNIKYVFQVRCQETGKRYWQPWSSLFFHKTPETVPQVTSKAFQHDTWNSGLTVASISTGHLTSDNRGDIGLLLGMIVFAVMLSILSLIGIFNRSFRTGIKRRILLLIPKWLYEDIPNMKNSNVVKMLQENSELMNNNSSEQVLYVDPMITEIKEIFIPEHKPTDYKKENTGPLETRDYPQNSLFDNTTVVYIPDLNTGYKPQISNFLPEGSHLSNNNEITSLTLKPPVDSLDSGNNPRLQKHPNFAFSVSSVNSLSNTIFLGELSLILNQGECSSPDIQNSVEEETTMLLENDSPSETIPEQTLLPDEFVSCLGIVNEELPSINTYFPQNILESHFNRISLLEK

[4] = molecular target: T2, Nluc-IL23R fusion protein (human, UniProt Q5VWK5 22-629); experiment: BRET competition vs TAMRA-labelled peptide, Nluc-IL23R membranes
T2 construct: range 22-629; expressed with a secretion signal in HEK293 cells; used as crude membrane preparation; also called hIL-23R; human IL-23R; not shown: Nanoluc protein from the expression plasmid N1371 (Promega), N-terminal of IL-23R
T2 sequence (looked up): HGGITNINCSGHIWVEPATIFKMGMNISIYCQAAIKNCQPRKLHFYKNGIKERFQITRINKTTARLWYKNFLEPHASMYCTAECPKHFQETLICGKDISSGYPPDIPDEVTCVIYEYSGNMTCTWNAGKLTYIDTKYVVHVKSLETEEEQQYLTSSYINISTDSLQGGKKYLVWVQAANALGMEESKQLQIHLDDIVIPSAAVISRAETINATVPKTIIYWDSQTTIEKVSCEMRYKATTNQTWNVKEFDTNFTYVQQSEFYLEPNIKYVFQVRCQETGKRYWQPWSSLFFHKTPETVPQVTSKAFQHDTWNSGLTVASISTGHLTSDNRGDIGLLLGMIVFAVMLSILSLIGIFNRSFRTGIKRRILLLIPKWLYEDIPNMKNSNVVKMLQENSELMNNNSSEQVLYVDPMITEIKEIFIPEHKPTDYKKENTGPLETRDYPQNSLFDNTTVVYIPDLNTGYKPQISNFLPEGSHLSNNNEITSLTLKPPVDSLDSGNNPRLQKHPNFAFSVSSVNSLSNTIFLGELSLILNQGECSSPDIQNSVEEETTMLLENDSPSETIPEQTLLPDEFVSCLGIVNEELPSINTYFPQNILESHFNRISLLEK

[4-Aminomethyl-phenylacetyl](1c)*AE(2c)WQ[Dab](2c)[7-AzaTrp][2-Nal][Aib]E(1c)[Dab][3-(3-Pyridyl)-Ala]
not cleaved [1]: 98% remaining after 4 h
not cleaved [2]: 92% remaining after 4 h

[4-Aminomethyl-phenylacetyl](1c)*AE(2c)WQ[Dab](2c)[7-F-Trp][2-Nal][Aib]E(1c)[Dab][3-(3-Pyridyl)-Ala]
not cleaved [2]: 92% remaining after 4 h

[4-Aminomethyl-phenylacetyl](1c)*AE(2c)WQ[Dab](2c)[Y(2-aminoethoxy)][2-Nal][2-Me-Leu]E(1c)[Dab][3-(3-Pyridyl)-Ala]-[NHMe]
not cleaved [1]: 103% remaining after 4 h
not cleaved [2]: 90% remaining after 4 h

[4-Aminomethyl-phenylacetyl](1c)*AE(2c)WQ[Dab](2c)[hPhe][2-Nal][Aib]E(1c)[Dab][3-(3-Pyridyl)-Ala]
not cleaved [1]: 102% remaining after 4 h
not cleaved [2]: 95% remaining after 4 h

[4-Aminomethyl-phenylacetyl](1c)*SE(2c)WQ[Dab](2c)[Y(2-aminoethoxy)][2-Nal][2-Me-Leu]E(1c)[Dab][2-Me-3-(3-Pyridyl)-Ala]-[NH2]
not cleaved [1]: 104% remaining after 4 h
not cleaved [2]: 109% remaining after 4 h

[4-Aminomethyl-phenylacetyl](1c)*SE(2c)WQ[Dab](2c)[Y(2-aminoethoxy)][2-Nal][2-Me-Leu]E(1c)[Dab][3-(3-Pyridyl)-Ala]-[NH2]
not cleaved [1]: 90% remaining after 4 h
cleaved bond [2]: Dab12-3Pal13, major

[4-Aminomethyl-phenylacetyl](1c)*SE(2c)WQ[Dab](2c)[Y(2-aminoethoxy)][2-Nal][2-Me-Leu]E(1c)[Dab][3-(3-Pyridyl)-Ala]-[NHMe]
not cleaved [2]: 105% remaining after 4 h

[4-Aminomethyl-phenylacetyl](1c)*SE(2c)WQ[Dab](2c)[Y(2-aminoethoxy)][2-Nal][2-Me-Leu]E(1c)[Dab][3-(3-Pyridyl)-Ala][Sar]-[NH2]
not cleaved [1]: 95% remaining after 4 h
not cleaved [2]: 105% remaining after 4 h

[4-Aminomethyl-phenylacetyl](1c)*SE(2c)WQ[Dab](2c)[Y(2-aminoethoxy)][2-Nal][2-Me-Leu]E(1c)[Dab][3-(3-Pyridyl)-Ala][beta-hLeu]-[NH2]
not cleaved [1]: 97% remaining after 4 h
not cleaved [2]: 102% remaining after 4 h

[4-Aminomethyl-phenylacetyl](1c)*SE(2c)WQ[Dab](2c)[Y(2-aminoethoxy)][2-Nal][2-Me-Leu]E(1c)[THP][3-(3-Pyridyl)-Ala]
not cleaved [1]: 94% remaining after 4 h
not cleaved [2]: 96% remaining after 4 h

[4-Aminomethyl-phenylacetyl](1c)*SE(2c)W[Cit][Dab](2c)[Y(2-aminoethoxy)][2-Nal][2-Me-Leu]E(1c)[Dab][3-(3-Pyridyl)-Ala]
not cleaved [1]: 99% remaining after 4 h
not cleaved [2]: 91% remaining after 4 h

[4-Aminomethyl-phenylacetyl](1c)*SE(2c)W[Dab(Ac)][Dab](2c)[Y(2-aminoethoxy)][2-Nal][2-Me-Leu]E(1c)[Dab][3-(3-Pyridyl)-Ala]
not cleaved [2]: 91% remaining after 4 h

[4-Aminomethyl-phenylacetyl](1c)*SE(2c)W[Orn][Dab](2c)[Y(2-aminoethoxy)][2-Nal][2-Me-Leu]E(1c)[Dab][3-(3-Pyridyl)-Ala]
not cleaved [1]: 110% remaining after 4 h
not cleaved [2]: 110% remaining after 4 h

[4-Aminomethyl-phenylacetyl](1c)*SE(2c)W[Q(2Me)][Dab](2c)[Y(2-aminoethoxy)][2-Nal][2-Me-Leu]E(1c)[Dab][3-(3-Pyridyl)-Ala]
not cleaved [2]: 94% remaining after 4 h

[4-Aminomethyl-phenylacetyl](1c)*SE(2c)W[Q(Me)][Dab](2c)[Y(2-aminoethoxy)][2-Nal][2-Me-Leu]E(1c)[Dab][3-(3-Pyridyl)-Ala]
not cleaved [1]: 90% remaining after 4 h
not cleaved [2]: 92% remaining after 4 h

[4‑Aminomethyl‑phenylacetyl]SEW[Q(pyrrolidin)″][Dab][AEF][2Nal][αMeL]E[Dab]-NH2 (lactam N-10, 3-6) [Ref 146]
hIL-23 (pSTAT3) antagonist % inhibition [3]: 98%
hIL-23 (pSTAT3) antagonist IC50 [3]: 42 nM
% displacement (hIL-23R binding) [4]: 105%

[4‑Aminomethyl‑phenylacetyl]SEWQ[Dab][AEF][2Nal][αMeL]E[Dab][H(Me)]-NH2 (lactam N-10, 3-6) [Compound 14]
hIL-23 (pSTAT3) antagonist % inhibition [3]: 99%
hIL-23 (pSTAT3) antagonist IC50 [3]: 7.2 nM
% displacement (hIL-23R binding) [4]: 102%
IC50 [4]: 0.11 nM

B1: Compound 15 (peptide)
peptide: [4‑Aminomethyl‑phenylacetyl]SEWQ[Dab][AEF][2Nal][αMeL]E[Iso‑Dab][αMeAla(3-pyridyl)]-NH2
modifications: lactam N-10, 3-6; reading uncertain; also: iso-Dab11 joined via side-chain amine
hIL-23 (pSTAT3) antagonist % inhibition [3]: 97%
hIL-23 (pSTAT3) antagonist IC50 [3]: 12 nM
% displacement (hIL-23R binding) [4]: 96%

B2: Compound 20 (peptide)
peptide: [4‑Aminomethyl‑phenylacetyl]AEWQ[Dab][AEF][2Nal][αMeL]E[Dab][3Pal]-NHMe
modifications: lactam N-10, 3-6
SMILES: CNC(=O)[C@H](Cc1cccnc1)NC(=O)[C@H](CCN)NC(=O)[C@@H]1CCC(=O)NCc2ccc(cc2)CC(=O)N[C@@H](C)C(=O)N[C@H]2CCC(=O)NCC[C@H](NC(=O)[C@H](CCC(N)=O)NC(=O)[C@H](Cc3c[nH]c4ccccc34)NC2=O)C(=O)N[C@@H](Cc2ccc(OCCN)cc2)C(=O)N[C@@H](Cc2ccc3ccccc3c2)C(=O)N[C@@](C)(CC(C)C)C(=O)N1
hIL-23 (pSTAT3) antagonist % inhibition [3]: 101%
hIL-23 (pSTAT3) antagonist IC50 [3]: 26 pM
% displacement (hIL-23R binding) [4]: 97%
